{"source": "patent US8877214B2", "about": "“Pharmaceutical composition for modified release” (Astellas Pharma Inc., priority 2010, dated 2014)", "key": {"[1]": {"experiment": "Pharmacokinetics of compound A after conventional formulation (elimination half-life; absorption by deconvolution)", "conditions": "human, in vivo; read-out: elimination half-life (T1/2)", "description": "Taking into consideration the results of the clinical trial described above, the present inventors conducted intensive studies to design the formulation by paying attention to the control of a release rate of the drug from a formulation to the extent that the release is not affected by food intake or the like, rather than the addition of release control.\nOn the basis of blood concentration profiles (in a fasted state/after the intake of food) after administration of a conventional formulation (immediate release formulation), the absorption rate of the drug in a fed state was calculated by a deconvolution method to predict continuous absorption for about 4 hours."}, "[2]": {"experiment": "Pharmacokinetics (PK) test of immediate release formulation (capsule formulation) in human", "assay_type": "in vivo", "conditions": "healthy subjects, immediate release capsules, 0.1 to 340 mg", "protocol": "The immediate release formulations (capsule formulations) containing 0.1 mg, 1 mg, 5 mg, 20 mg, and 80 mg of the compound A were used in combinations as needed so that the dose of compound A became 0.1 mg, 1 mg, 3 mg, 10 mg, 30 mg, 100 mg, 160 mg, 240 mg, and 340 mg."}}, "data": [{"smiles": "Nc1nc(CC(=O)Nc2ccc(CCNC[C@H](O)c3ccccc3)cc2)cs1", "note": "[Compound A, (R)-2-(2-aminothiazol-4-yl)-4′-[2-[(2-hydroxy-2-phenylethyl)amino]ethyl]acetic acid anilide]", "values": [{"measurement": "half-life", "setting": "[1]", "value": "18 to 24", "unit": "h"}, {"measurement": "relation between Cmax and the increase in heart rate from the base line", "setting": "[2]", "value": "positive correlation"}]}]}
